The values that follow come from patent publication US20220236254A1, “BITTER TASTE RECEPTOR BLOCKERS AND METHODS OF THEIR IDENTIFICATION” (Firmenich Incorporated, priority 2019, published 2022).

Format in all cases: cell-based
Assay [1] addresses T1, polypeptide identified herein as SEQ ID NO: 2 (hT2R44) (Homo sapiens, UniProt P59541, F252L).
T1 construct: expressed in transfected cells; host or cells: cells expressing a promiscuous G protein (G16g44)
T1 sequence (P59541 1-319 F252L): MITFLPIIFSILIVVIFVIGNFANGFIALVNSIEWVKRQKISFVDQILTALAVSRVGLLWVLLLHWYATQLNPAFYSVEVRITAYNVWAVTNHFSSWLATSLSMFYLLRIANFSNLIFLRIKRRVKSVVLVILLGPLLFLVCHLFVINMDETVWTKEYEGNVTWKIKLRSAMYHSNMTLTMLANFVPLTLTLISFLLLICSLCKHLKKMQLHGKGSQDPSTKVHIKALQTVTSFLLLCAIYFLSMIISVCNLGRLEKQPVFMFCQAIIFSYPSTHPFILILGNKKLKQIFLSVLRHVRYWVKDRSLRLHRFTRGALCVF
The assay is described as follows: Bitterness antagonism: PMFs antagonizing limonin on cells expressing the receptor. The conditions noted are these: limonin 25 μM. As to the method:
(§1) Cells expressing a promiscuous G protein (G16g44) were transfected using TransIT-293 (Mirus) with expression vectors encoding 22 functional biter receptor cDNAs, with one receptor per transfection. The cells were transfected directly in 384-well format high-density plates and incubated for 28 hours. Later, cells were loaded with the Ca-specific dye Fluo4-AM. After an incubation of 60 minutes, excess dye is washed off, and cells are stimulated with respective bitter agonists while simultaneously recording changes in intracellular fluorescence using a FLIPR instrument. Bitter agonist and responding receptors were identified and respective stable bitter receptor cell lines were then used in the same assay to perform full dose-response analysis with the respective bitter agonists.
Certain PMFs were tested for their ability to antagonize binding of limonin to cells expressing the polypeptide identified herein as SEQ ID NO: 2.

Assay [2] concerns the target T2, SEQ ID NO: 1 (hT2R80) (Homo sapiens, UniProt Q9NYW2).
T2 construct: expressed in transfected cells; host or cells: cells expressing a promiscuous G protein (G16g44)
T2 sequence (Q9NYW2 1-309): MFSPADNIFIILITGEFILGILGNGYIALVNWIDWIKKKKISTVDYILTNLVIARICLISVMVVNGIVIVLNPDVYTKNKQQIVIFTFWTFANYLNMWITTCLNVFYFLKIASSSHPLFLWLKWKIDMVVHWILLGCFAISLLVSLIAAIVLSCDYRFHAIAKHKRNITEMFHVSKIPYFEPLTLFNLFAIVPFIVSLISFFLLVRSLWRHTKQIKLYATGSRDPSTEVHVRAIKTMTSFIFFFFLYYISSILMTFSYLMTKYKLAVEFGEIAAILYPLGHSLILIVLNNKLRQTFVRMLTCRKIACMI
The assay is described as follows: Bitter receptor identification, FLIPR calcium assay with bitter agonist. The conditions noted are these: concentration range of 12.5 μM to 50 μM; cells expressing SEQ ID NO: 1. The protocol:
as §1, with “([…])” for “(G16g44)”, “agonists. The above protocol was carried out using limonin as a non-limiting example of a bitter agonist. […] The five expressed receptor proteins correspond to the amino acid sequences identified herein as SEQ ID NO: 1, 2, 3, 4, and 5.” for “agonists.”

The target of assay [3] is T3, SEQ ID NO: 2 (hT2R44) (Homo sapiens, UniProt P59541, F252L).
T3 construct: expressed in transfected cells; host or cells: cells expressing a promiscuous G protein (G16g44)
T3 sequence (P59541 1-319 F252L): T1 sequence (P59541 1-319 F252L)
The assay is described as above. The conditions noted are these: concentration range of 12.5 μM to 50 μM; cells expressing SEQ ID NO: 2. As to the method: as §1, with “([…])” for “(G16g44)”, “agonists. The above protocol was carried out using limonin as a non-limiting example of a bitter agonist. […] The five expressed receptor proteins correspond to the amino acid sequences identified herein as SEQ ID NO: 1, 2, 3, 4, and 5.” for “agonists.”

The target in assay [4] is T4, SEQ ID NO: 3 (hT2R51) (Homo sapiens, UniProt P59533, A49P/I296V).
T4 construct: expressed in transfected cells; host or cells: cells expressing a promiscuous G protein (G16g44)
T4 sequence (P59533 1-333 A49P/I296V): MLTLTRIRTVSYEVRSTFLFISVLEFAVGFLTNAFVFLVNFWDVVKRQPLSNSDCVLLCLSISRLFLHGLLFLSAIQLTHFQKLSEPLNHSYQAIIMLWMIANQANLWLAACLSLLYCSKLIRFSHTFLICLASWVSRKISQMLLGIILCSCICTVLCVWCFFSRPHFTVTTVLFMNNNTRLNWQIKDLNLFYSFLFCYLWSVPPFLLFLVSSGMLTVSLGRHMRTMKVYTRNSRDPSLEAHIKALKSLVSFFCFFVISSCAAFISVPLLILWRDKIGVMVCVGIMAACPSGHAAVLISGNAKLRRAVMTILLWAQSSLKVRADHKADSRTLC
Described as above. The conditions noted are these: concentration range of 12.5 μM to 50 μM; cells expressing SEQ ID NO: 3. The protocol:
as §1, with “([…])” for “(G16g44)”, “agonists. The above protocol was carried out using limonin as a non-limiting example of a bitter agonist. […] The five expressed receptor proteins correspond to the amino acid sequences identified herein as SEQ ID NO: 1, 2, 3, 4, and 5.” for “agonists.”

Assay [5] has as its target T5, SEQ ID NO: 4 (hT2R65) (Homo sapiens, UniProt P59542, V32I).
T5 construct: expressed in transfected cells; host or cells: cells expressing a promiscuous G protein (G16g44)
T5 sequence (P59542 1-299 V32I): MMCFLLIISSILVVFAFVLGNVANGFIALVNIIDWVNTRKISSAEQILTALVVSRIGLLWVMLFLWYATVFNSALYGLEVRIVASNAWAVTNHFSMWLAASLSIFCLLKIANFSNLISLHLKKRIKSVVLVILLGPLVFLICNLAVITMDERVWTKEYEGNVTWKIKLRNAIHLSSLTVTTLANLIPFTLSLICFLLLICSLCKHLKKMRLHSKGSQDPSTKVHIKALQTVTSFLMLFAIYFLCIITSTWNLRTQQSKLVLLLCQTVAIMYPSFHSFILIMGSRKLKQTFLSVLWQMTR
The assay is described as above. To be noted: concentration range of 12.5 μM to 50 μM; cells expressing SEQ ID NO: 4. As to the method: as §1, with “([…])” for “(G16g44)”, “agonists. The above protocol was carried out using limonin as a non-limiting example of a bitter agonist. […] The five expressed receptor proteins correspond to the amino acid sequences identified herein as SEQ ID NO: 1, 2, 3, 4, and 5.” for “agonists.”

The target of assay [6] is T6, SEQ ID NO: 5 (hT2R75) (Homo sapiens, UniProt P59540).
T6 construct: expressed in transfected cells; host or cells: cells expressing a promiscuous G protein (G16g44)
T6 sequence (P59540 1-309): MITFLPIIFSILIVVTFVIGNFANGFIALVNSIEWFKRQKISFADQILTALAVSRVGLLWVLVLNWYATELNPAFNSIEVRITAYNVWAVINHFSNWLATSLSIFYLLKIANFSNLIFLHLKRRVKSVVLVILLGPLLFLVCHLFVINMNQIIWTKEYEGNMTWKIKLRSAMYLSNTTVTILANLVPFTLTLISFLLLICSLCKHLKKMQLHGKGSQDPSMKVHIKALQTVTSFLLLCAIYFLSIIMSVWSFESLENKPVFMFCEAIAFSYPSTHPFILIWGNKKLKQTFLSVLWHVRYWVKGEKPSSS
The description is as above. The conditions noted are these: concentration range of 12.5 μM to 50 μM; cells expressing SEQ ID NO: 5. The protocol: as §1, with “([…])” for “(G16g44)”, “agonists. The above protocol was carried out using limonin as a non-limiting example of a bitter agonist. […] The five expressed receptor proteins correspond to the amino acid sequences identified herein as SEQ ID NO: 1, 2, 3, 4, and 5.” for “agonists.”

The mark [7] stands for this setting: antagonist 200 μM (no antagonist: 98).

Consider `COc1ccc(-c2oc3c(OC)c(OC)c(OC)c(OC)c3c(=O)c2OC)cc1OC`, for which the “% Limonin Activation” value in assay [1] (setting [7]) is 79%.
In the case of `COc1ccc(-c2oc3cc(OC)c(OC)c(OC)c3c(=O)c2OC)cc1OC`, the “% Limonin Activation” value in assay [1] (antagonist 100 μM (no antagonist: 98)) is listed as 77%.
Consider `COc1ccc(-c2cc(=O)c3c(OC)c(OC)c(OC)c(OC)c3o2)cc1OC`, for which, in assay [1] (setting [7]), the “% Limonin Activation” value is recorded as 74%.
As for `COc1ccc(-c2cc(=O)c3c(OC)c(OC)c(OC)cc3o2)cc1OC`, the “% Limonin Activation” value in assay [1] (setting [7]) came to 70%.
As to `COc1ccc(-c2cc(=O)c3c(OC)c(OC)c(OC)c(OC)c3o2)cc1`, the “% Limonin Activation” value in assay [1] (antagonist 50 μM (no antagonist: 98)) worked out at 76%.
Regarding `COc1cc(-c2cc(=O)c3c(OC)c(OC)c(OC)cc3o2)ccc1O`, the “% Limonin Activation” value in assay [1] (setting [7]) was 64%.
Take `CC1(C)O[C@H]2CC(=O)OC[C@]23[C@H]2CC[C@@]4(C)[C@H](c5ccoc5)OC(=O)[C@H]5O[C@]54[C@]2(C)C(=O)C[C@@H]13` [limonin]: the “dose response of receptor to bitter agonist” value in assay [2], in assay [3], in assay [4], in assay [5] and in assay [6] was “positive dose response” in each case.
